Test results from patent US20240246969A1, “HETEROCYCLIC DERIVATIVES AS CAMKK2 INHIBITORS” (Bristol-Myers Squibb Company, priority 2021, published 2024).

The compounds below were run against CaMKK2 (Homo sapiens, UniProt Q96RR4) (assay: CaMKK2 binding assay (LanthaScreen TR-FRET)). Details: not given.
Experimental: The ability of test compounds to bind and inhibit the activity of CaMKK2 were determined using a binding assay using LanthaScreent (Thermofisher) detection reagents in a 384-well plate format using the following assay buffer: 50 mM HEPES (pH7.5), 10 mM MgCl2, 1 mM EGTA, and 0.01% Brij-35.
A 10-point serial dilution of inhibitor compound in 0.5% DMSO was added to each well of the plate. The final assay volume in well was 15 uL. […] A ratio was calculated from the 2 readouts and fitted to a 4-parameter fit to determine the binding IC50.

Chain of CaMKK2 (Q96RR4 whole entry): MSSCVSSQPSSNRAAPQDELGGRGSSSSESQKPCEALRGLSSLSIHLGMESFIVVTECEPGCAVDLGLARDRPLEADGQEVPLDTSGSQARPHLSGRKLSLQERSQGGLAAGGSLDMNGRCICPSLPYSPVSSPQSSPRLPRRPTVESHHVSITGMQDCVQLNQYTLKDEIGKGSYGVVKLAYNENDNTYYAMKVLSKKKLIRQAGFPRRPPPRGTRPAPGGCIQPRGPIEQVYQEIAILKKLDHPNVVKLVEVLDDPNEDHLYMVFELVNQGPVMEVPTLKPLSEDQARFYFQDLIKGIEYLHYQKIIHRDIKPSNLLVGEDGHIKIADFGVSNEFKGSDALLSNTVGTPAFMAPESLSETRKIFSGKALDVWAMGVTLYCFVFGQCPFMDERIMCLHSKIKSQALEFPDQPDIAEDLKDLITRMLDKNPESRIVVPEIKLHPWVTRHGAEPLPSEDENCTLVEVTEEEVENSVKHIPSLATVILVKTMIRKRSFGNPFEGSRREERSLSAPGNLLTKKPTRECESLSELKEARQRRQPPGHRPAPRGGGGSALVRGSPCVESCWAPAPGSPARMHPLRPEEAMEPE

| Compound | IC50 [nM] |
| --- | --- |
| Cc1cc(C)cc(-c2cnc3ccn(-c4ccc(C(=O)O)c(C5CCNC5)c4)c3n2)c1 (single isomer, unassigned) [Example 26] | < 100 |
| Cc1cc(C)cc(-c2cnc3ccn(-c4ccc(C(=O)O)c(C5CCCNC5)c4)c3n2)c1 (single isomer, unassigned) [Example 28] | < 100 |
| O=C(O)c1ccc(-c2ccnc3cc(C4CC4)nn23)cc1C1CCCC1 [Example 2.1, 2-Cyclopentyl-4-(2-cyclopropylpyrazolo[1,5-a]pyrimidin-7-yl)benzoic Acid] | < 100 |
| COc1cc2nccc(-c3ccc(C(=O)O)c(C4CCCC4)c3)n2n1 [Example 2.3, 2-Cyclopentyl-4-(2-methoxypyrazolo[1,5-a]pyrimidin-7-yl)benzoic Acid] | < 100 |
| CCOc1cc2nccc(-c3ccc(C(=O)O)c(C4CCCC4)c3)n2n1 [Example 2.4, 2-Cyclopentyl-4-(2-ethoxypyrazolo[1,5-a]pyrimidin-7-yl)benzoic Acid] | < 100 |
| O=C(O)c1ccc(-c2ccnc3cc(-c4ccc(F)cc4)nn23)cc1C1CCCC1 [Example 2.5, 2-Cyclopentyl-4-(2-(4-fluorophenyl)pyrazolo[1,5-a]pyrimidin-7-yl)benzoic Acid] | < 100 |
| O=C(O)c1ccc(-c2ccnc3cc(-c4cccc(F)c4)nn23)cc1C1CCCC1 [Example 2.7, 2-Cyclopentyl-4-(2-(3-fluorophenyl)pyrazolo[1,5-a]pyrimidin-7-yl)benzoic Acid] | < 100 |
| COc1ccc(-c2cc3nccc(-c4ccc(C(=O)O)c(C5CCCC5)c4)n3n2)cc1 [Example 2.8, 2-Cyclopentyl-4-(2-(4-methoxyphenyl)pyrazolo[1,5-a]pyrimidin-7-yl)benzoic Acid] | < 100 |
| COc1cccc(-c2cc3nccc(-c4ccc(C(=O)O)c(C5CCCC5)c4)n3n2)c1 [Example 2.9, 2-Cyclopentyl-4-(2-(3-methoxyphenyl)pyrazolo[1,5-a]pyrimidin-7-yl)benzoic Acid] | < 100 |
| Cn1cc(-c2cc3nccc(-c4ccc(C(=O)O)c(C5CCCC5)c4)n3n2)cn1 [Example 2.12, 2-Cyclopentyl-4-(2-(1-methyl-H-pyrazol-4-yl)pyrazolo[1,5-a]pyrimidin-7-yl)benzoic Acid] | < 100 |
| COc1cc(-c2ccnc3cc(-c4ccc(F)cc4)nn23)ccc1C(=O)N[C@H](CO)c1ccccc1 [Example 2.13, (S)-4-(2-(4-Fluorophenyl)pyrazolo[1,5-a]pyrimidin-7-yl)-N-(2-hydroxy-1-phenylethyl)-2-methoxybenzamide] | < 100 |
| Cc1cccc(-c2cnc3ccn(-c4ccc(C(=O)O)c(C5CCCC5)c4)c3n2)c1 [Example 4, 2-Cyclopentyl-4-(3-(m-tolyl)-5H-pyrrolo[2,3-b]pyrazin-5-yl)benzoic Acid] | < 100 |
| Cn1ncc2cc(-c3cnc4ccn(-c5ccc(C(=O)O)c(NCC6CC6)c5)c4n3)c(F)cc21 [Example 8, 2-((Cyclopropylmethyl)amino)-4-(3-(6-fluoro-1-methyl-1H-indazol-5-yl)-5H-pyrrolo[2,3-b]pyrazin-5-yl)benzoic Acid] | < 100 |
| O=C(O)c1ccc(-n2ccc3ncc(-c4ccc(F)cc4F)nc32)cc1NC1CC1 [Example 10, 2-(Cyclopropylamino)-4-(3-(2,4-difluorophenyl)-5H-pyrrolo[2,3-b]pyrazin-5-yl)benzoic Acid] | < 100 |
| O=C(O)c1ccc(-n2ccc3ncc(-c4ccc(F)cc4)nc32)cc1NCC1CC1 [Example 11, 2-((Cyclopropylmethyl)amino)-4-(3-(4-fluorophenyl)-5H-pyrrolo[2,3-b]pyrazin-5-yl)benzoic Acid] | < 100 |
| CCNc1cc(-n2ccc3ncc(-c4ccc5c(cnn5C)c4)nc32)ccc1C(=O)O [Example 14, 2-(Ethylamino)-4-(3-(1-methyl-1H-indazol-5-yl)-5H-pyrrolo[2,3-b]pyrazin-5-yl)benzoic Acid] | < 100 |
| O=C(O)c1ccc(-n2ccc3ncc(-c4ccc(F)cc4)nc32)cc1NC1CC1 [Example 15, 2-(Cyclopropylamino)-4-(3-(4-fluorophenyl)-5H-pyrrolo[2,3-b]pyrazin-5-yl)benzoic Acid] | < 100 |
| CCNc1cc(-n2ccc3ncc(-c4ccc5cn(C)nc5c4)nc32)ccc1C(=O)O [Example 16, 2-(Ethylamino)-4-(3-(2-methyl-2H-indazol-6-yl)-5H-pyrrolo[2,3-b]pyrazin-5-yl)benzoic Acid] | < 100 |
| Cn1cc2ccc(-c3cnc4ccn(-c5ccc(C(=O)O)c(NCC6CC6)c5)c4n3)cc2n1 [Example 17, 2-((Cyclopropylmethyl)amino)-4-(3-(2-methyl-2H-indazol-6-yl)-5H-pyrrolo[2,3-b]pyrazin-5-yl)benzoic Acid] | < 100 |
| O=C(NS(=O)(=O)C(F)(F)F)c1ccc(-n2ccc3ncc(C4CC4)nc32)cc1C1CCCC1 [Example 21, 2-Cyclopentyl-4-(3-cyclopropyl-5H-pyrrolo[2,3-b]pyrazin-5-yl)-N-((trifluoromethyl)sulfonyl)benzamide] | 100 to 1000 |
| N#Cc1ccc(-n2ccc3ncc(-c4ccccc4)nc32)cc1C1CCCC1 [Example 22, 2-Cyclopentyl-4-(3-phenyl-5H-pyrrolo[2,3-b]pyrazin-5-yl)benzonitrile] | 1000 to 10000 |
| c1ccc(-c2cnc3ccn(-c4ccc(-c5nn[nH]n5)c(C5CCCC5)c4)c3n2)cc1 [Example 23, 5-(3-Cyclopentyl-4-(2H-tetrazol-5-yl)phenyl)-3-phenyl-5H-pyrrolo[2,3-b]pyrazine] | < 100 |
| Cc1cc(C)cc(-c2cnc3ccn(-c4ccc(C(=O)O)c(NC5CNC5)c4)c3n2)c1 [Example 25, 2-(azetidin-3-ylamino)-4-(3-(3,5-dimethylphenyl)-5H-pyrrolo[2,3-b]pyrazin-5-yl)benzoic Acid] | < 100 |
| Cc1cc(C)cc(-c2cnc3ccn(-c4ccc(C(=O)O)c(CC5CNC5)c4)c3n2)c1 [Example 27, 2-(azetidin-3-ylmethyl)-4-(3-(3,5-dimethylphenyl)-5H-pyrrolo[2,3-b]pyrazin-5-yl) benzoic Acid] | < 100 |
| Cc1cc(C)cc(-c2cnc3ccn(-c4ccc(C(=O)O)c(C5CCNCC5)c4)c3n2)c1 [Example 29, 4-(3-(3,5-dimethylphenyl)-5H-pyrrolo[2,3-b]pyrazin-5-yl)-2-(piperidin-4-yl)benzoic Acid] | < 100 |
| Cc1cc(C)cc(-c2cnc3ccn(-c4ccc(C(=O)O)c(N[C@@H]5CCNC5)c4)c3n2)c1 [Example 31, (R)-4-(3-(3,5-dimethylphenyl)-5H-pyrrolo[2,3-b]pyrazin-5-yl)-2-(pyrrolidin-3-ylamino)benzoic Acid] | < 100 |

The next lines start with the values.

| IC50 [nM] | Compound |
| --- | --- |
| < 100 | Cc1cc(-n2cc3ncc(F)c(-c4ccc(C(=O)O)c(C5CCCC5)c4)c3n2)cc(C(F)(F)F)c1 [Example 3.8, 2-Cyclopentyl-4-(6-fluoro-2-(3-methyl-5-(trifluoromethyl)phenyl)-2H-pyrazolo[4,3-b]pyridin-7-yl)benzoic Acid] |
| < 100 | O=C(O)c1ccc(-c2c(F)cnc3cn(-c4cc(F)cc(Cl)c4)nc23)cc1C1CCCC1 [Example 3.10, 4-(2-(3-Chloro-5-fluorophenyl)-6-fluoro-2H-pyrazolo[4,3-b]pyridin-7-yl)-2-cyclopentylbenzoic Acid] |
| < 100 | Cc1cc(F)cc(-n2cc3ncc(F)c(-c4ccc(C(=O)O)c(C5CCCC5)c4)c3n2)c1 [Example 3.11, 2-Cyclopentyl-4-(6-fluoro-2-(3-fluoro-5-methylphenyl)-2H-pyrazolo[4,3-b]pyridin-7-yl)benzoic Acid] |
| < 100 | COc1cc(-n2cc3ncc(F)c(-c4ccc(C(=O)O)c(C5CCCC5)c4)c3n2)cc(C(F)(F)F)c1 [Example 3.13, 2-Cyclopentyl-4-(6-fluoro-2-(3-methoxy-5-(trifluoromethyl)phenyl)-2H-pyrazolo[4,3-b]pyridin-7-yl)benzoic Acid] |
| < 100 | O=C(O)c1ccc(-c2c(F)cnc3cn(-c4cc(F)cc(C(F)(F)F)c4)nc23)cc1C1CCCC1 [Example 3.14, 2-Cyclopentyl-4-(6-fluoro-2-(3-fluoro-5-(trifluoromethyl)phenyl)-2H-pyrazolo[4,3-b]pyridin-7-yl)benzoic Acid] |
| < 100 | O=C(O)c1ccc(-c2c(F)cnc3cn(-c4cc(Cl)cc(C(F)(F)F)c4)nc23)cc1C1CCCC1 [Example 3.15, 4-(2-(3-Chloro-5-(trifluoromethyl)phenyl)-6-fluoro-2H-pyrazolo[4,3-b]pyridin-7-yl)-2-cyclopentylbenzoic] |
| < 100 | COc1cc(-c2ccnc3cn(-c4ccc(F)cc4)nc23)ccc1C(=O)N[C@H](CO)c1ccccc1 [Example 3.19, (S)-4-(2-(4-fluorophenyl)-2H-pyrazolo[4,3-b]pyridin-7-yl)-N-(2-hydroxy-1-phenylethyl)-2-methoxybenzamide] |
| < 100 | N#CNC(=O)c1ccc(-c2ccnc3cn(-c4ccc(F)cc4)nc23)cc1C1CCCC1 [Example 3.20, N-Cyano-2-cyclopentyl-4-(2-(4-fluorophenyl)-2H-pyrazolo[4,3-b]pyridin-7-yl)benzamide] |
| < 100 | O=C(O)c1ccc(-c2c(F)cnc3cn(-c4ccc(F)cc4)nc23)cc1NC1CC1 [Example 3.21, 2-(Cyclopropylamino)-4-(6-fluoro-2-(4-fluorophenyl)-2H-pyrazolo[4,3-b]pyridin-7-yl)benzoic Acid] |
| < 100 | Cc1cccc(-c2cc3c(-c4ccc(C(=O)O)c(C5CCCC5)c4)ccnn3c2)c1 [Example 4.2, 2-Cyclopentyl-4-[6-(m-tolyl)pyrrolo[1,2-b]pyridazin-4-yl]benzoic Acid] |
| < 100 | O=C(O)c1ccc(-c2ccnn3cc(-c4ccccc4F)cc23)cc1C1CCCC1 [Example 4.3, 2-Cyclopentyl-4-[6-(2-fluorophenyl)pyrrolo[1,2-b]pyridazin-4-yl]benzoic Acid] |

Same assay, conditions: binding IC50, 1 nM CaMKK2, 5 nM Kinase tracer 236, 20 minutes

| Compound | IC50 [nM] |
| --- | --- |
| 2-((azetidin-3-ylmethyl)amino)-4-(3-(3,5-dimethylphenyl)-5H-pyrrolo[2,3-b]pyrazin-5-yl)benzoic Acid [Example 30] | < 100 |
